In the assay the target is T1, Group IIA purified human synovial sPLA2 (Homo sapiens, UniProt P14555).
T1 construct: purchased Cayman, USA
T1 sequence (P14555 21-144): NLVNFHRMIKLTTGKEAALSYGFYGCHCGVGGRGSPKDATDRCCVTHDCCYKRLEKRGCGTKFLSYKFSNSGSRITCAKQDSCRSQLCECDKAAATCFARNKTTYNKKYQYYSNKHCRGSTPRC
The assay can be described thus: In vitro inhibition of purified human synovial sPLA2, 3H-labelled E. coli membranes. As to conditions: for inhibition at 5 µM / Mean % Inhibition: fixed peptide concentration 5 μM. Format: biochemical.

Where [1] appears, read: 3H-labelled E. coli membranes as substrate.
The mark [2] stands for this setting: purified human synovial sPLA2 (Cayman).

Where a SMILES comes first, the peptide text is derived from it.

As to `CC[C@H](C)[C@H](NC(=O)[C@H](CCC(=O)O)NC(=O)[C@@H](N)C(C)C)C(=O)N[C@@H](Cc1c[nH]cn1)C(=O)N[C@H](C(=O)N[C@@H](Cc1c[nH]c2ccccc12)C(=O)N[C@@H](CCC(=O)O)C(=O)NCC(=O)N[C@H](C(=O)O)C(C)C)C(C)C` [D60, 65E-PIP (59–67)] (H-VEIHVWEGV-OH; N-terminus and C-terminus assumed), the half-maximal inhibitory concentration (IC50) under setting [1] stood at 4.2 µM. This lies in the single-digit micromolar range.

With `CC[C@H](C)[C@H](NC(=O)[C@H](CC(=O)O)NC(=O)[C@@H](N)C(C)C)C(=O)N[C@@H](Cc1cnc[nH]1)C(=O)N[C@H](C(=O)N[C@@H](Cc1c[nH]c2ccccc12)C(=O)N[C@@H](C)C(=O)NCC(=O)N[C@H](C(=O)O)C(C)C)C(C)C` [D65A-PIP (59–67)] (H-VDIHVWAGV-OH), half-maximal inhibition under setting [1] (IC50) required 5.45 µM. The IC50 values of the last two compounds are within 1.5-fold of each other.

`CC[C@H](C)[C@H](NC(=O)[C@H](CC(=O)O)NC(=O)[C@@H](N)C(C)C)C(=O)N[C@@H](Cc1cnc[nH]1)C(=O)N[C@H](C(=O)N[C@@H](Cc1c[nH]c2ccccc12)C(=O)N[C@@H](CCC(=O)O)C(=O)NCC(=O)N[C@H](C(=O)O)C(C)C)C(C)C` [D65E-PIP (59–67)] (H-VDIHVWEGV-OH): under setting [1], the midpoint of inhibition, the IC50, lay at 4.95 µM.

As for `CC[C@H](C)[C@H](NC(=O)[C@H](CC(=O)O)NC(=O)[C@@H](N)C(C)C)C(=O)N[C@@H](Cc1cnc[nH]1)C(=O)N[C@H](C(=O)N[C@@H](Cc1c[nH]c2ccccc12)C(=O)N[C@@H](CO)C(=O)NCC(=O)N[C@H](C(=O)O)C(C)C)C(C)C` [D65S-PIP (59–67)] (H-VDIHVWSGV-OH), the IC50 under setting [1] was found to be 5.25 µM. The IC50 values of the last two compounds are within 1.5-fold of each other.

As for `CC[C@H](C)[C@H](NC(=O)[C@H](CC(=O)O)NC(=O)[C@@H](NC(=O)[C@@H](N)CCCNC(=N)N)C(C)C)C(=O)N[C@@H](Cc1c[nH]cn1)C(=O)N[C@H](C(=O)N[C@@H](Cc1c[nH]c2ccccc12)C(=O)N[C@@H](CC(=O)O)C(=O)NCC(=O)N[C@H](C(=O)O)C(C)C)C(C)C` [PIP (58–67)] (H-RVDIHVWDGV-OH; N-terminus and C-terminus assumed), the inhibition at 5 µM turned out to be 59.5%. This compound returned an IC50 under setting [1] of 3.67 µM.

Compound `CC[C@H](C)[C@H](NC(=O)[C@H](CC(=O)O)NC(=O)[C@@H](N)C(C)C)C(=O)N[C@@H](Cc1cnc[nH]1)C(=O)N[C@H](C(=O)N[C@@H](Cc1c[nH]c2ccccc12)C(=O)N[C@@H](CC(=O)O)C(=O)NCC(=O)N[C@H](C(=O)N[C@H](C(=O)N[C@@H](CC(=O)O)C(=O)N[C@H](C(=O)N[C@@H](Cc1cnc[nH]1)C(=O)N[C@H](C(=O)N[C@@H](Cc1c[nH]c2ccccc12)C(=O)N[C@@H](CC(=O)O)C(=O)NCC(=O)N[C@H](C(=O)O)C(C)C)C(C)C)[C@@H](C)CC)C(C)C)C(C)C)C(C)C` [PIP (59–67) dimer, VDIHVWDGV VDIHVWDGV] (H-VDIHVWDGVVDIHVWDGV-OH) displayed an IC50 under setting [2] of 1.19 µM.

On to `CC[C@H](C)[C@H](NC(=O)[C@H](CC(=O)O)NC(=O)[C@@H](N)C(C)C)C(=O)N[C@@H](Cc1c[nH]cn1)C(=O)N[C@H](C(=O)N[C@@H](Cc1c[nH]c2ccccc12)C(=O)N[C@@H](CC(=O)O)C(=O)NCC(=O)N[C@H](C(=O)O)C(C)C)C(C)C` [PIP (59–67)] (H-VDIHVWDGV-OH; N-terminus and C-terminus assumed), for which, under setting [2], the IC50 was found to be 3.8 µM.

Compound `CC[C@H](C)[C@H](NC(=O)[C@@H](N)CC(=O)O)C(=O)N[C@@H](Cc1c[nH]cn1)C(=O)N[C@H](C(=O)N[C@@H](Cc1c[nH]c2ccccc12)C(=O)N[C@@H](CC(=O)O)C(=O)NCC(=O)N[C@H](C(=O)O)C(C)C)C(C)C` [PIP (60–67)] (H-DIHVWDGV-OH; N-terminus and C-terminus assumed) gave an inhibition at 5 µM of 45.9%. For the same compound, inhibition under setting [1] was half-maximal at 5.75 µM (IC50).

DIHVWDG [PIP (60–66)]: the “Mean % Inhibition” value is on record as “n.s”.

As for GRVDIHVWDGV [PIP (57–67)], the “Mean % Inhibition” value is listed as 14.22%.

As to HVWDG [PIP (62–66)], the “Mean % Inhibition” value is on record as “n.s”.

For IHVWDG [PIP (61–66)], the “Mean % Inhibition” value is recorded as “n.s”.

For IHVWDGV [PIP (61–67)], the “Mean % Inhibition” value was “n.s”.

For LGRVDIHVWDGV [PIP (56–67)], the “Mean % Inhibition” value is reported as 34.21%.

One may read the IC50 as the midpoint of a concentration-inhibition curve. One may read the inhibition as the share of the control response that was lost under treatment. A high value points to strong suppression.
